Measurements reported in US10364256B2 (GlaxoSmithKline Intellectual Property Development Limited, priority 2015, dated 2019).
Where two headings read alike, the source gives them in different places.

Tests used:
[1] = target: T1, Keap1 Kelch domain (321-609) / TAMRA-labeled 16mer NRF2 peptide (ETGE motif) (Homo sapiens, UniProt Q14145); assay: NRF2-Keap1 FP Assay (Keap1 Kelch fluorescence polarization); format: binding; conditions: 20 nM Keap1 (321-609), 8 nM Tamra labeled peptide
T1 construct: the Kelch domain (321-609) of Keap1 is used
Excerpt: One model for the NRF2-Keap1 interaction is through two binding sites in the Neh2 domain on NRF2. The two sites are referred to as the DLG binding motif (latch domain, uM affinity) and the ETGE binding motif (hinge domain, nM affinity). The Keap1 protein consists of an N-terminal region (NTR), a broad complex, tramtrack, and brick a′ brac domain (BTB), an intervening region (IVR), a double glycine repeat domain (DGR or Kelch), and a C-terminal region. The DLG and ETGE motifs of NRF2's Neh2 domain bind to the Kelch domain of Keap1 at different affinities. In the Keap1 Kelch fluorescence polarization (FP) assay, a TAMRA-labeled 16mer peptide (AFFAQLQLDEETGEFL) containing the ETGE motif of NRF2 and the Kelch domain (321-609) of Keap1 is used. The assay determines if a compound interferes with the binding between Keap1 […] and the TAMRA-labeled peptide. Binding of TAMRA-labeled NRF2 peptide to Keap1 (321-609) results in a high FP signal. If a compound interferes with the binding between the peptide and the protein, it will cause the assay signal to decrease. Thus, assay signal is inversely proportional to binding inhibition.
100 nl of 100× compound dose response curves (serial 3-fold dilutions) in DMSO are stamped using an Echo liquid handling system (Labcyte) into 384-well low volume black assay plates (Greiner, #784076), with DMSO in columns 6 and 18. The top concentration of compound is located in columns 1 and 13. Keap1 (321-609) is diluted to 40 nM (2×) in 1× assay buffer (50 mM Tris, pH 8.0, 100 mM NaCl, 5 mM MgCl2, 1 mM DTT, 2 mM CHAPS, and 0.005% BSA) and 5 ul is added using a Multidrop Combi (Thermo Electron Corporation) equipped with a metal tip dispenser to all wells of the compound plate, except column 18. Column 18 receives only 5 ul of assay buffer. Immediately, 5 uL of 16 nM (2×) of Tamra labeled peptide (AFFAQLQLDEETGEFL, 21st Century Biochemicals) is added to all wells of the plate. The plates are spun at 500 rpm for 1 min, incubated for 1 hr at room temperature, and read on an Analyst GT (Molecular Devices) equipped with excitation (530/25 nm) and emission (580/10 nm) filters designed for Tamra probes. A 561 nm dichroic mirror is also used in the Analyst. The final assay concentrations of Keap1 (321-609) and Tamra labeled peptide are 20 nM and 8 nM, respectively. Fluorescence measurements, represented as mP, are used in the transformation of the data. Compound activity is calculated based on percent inhibition, normalized against controls in the assay (Control 1 contains the Tamra peptide and Keap1 (321-609) together (0% response) and control 2 contains the Tamra peptide alone (100% response)). Data analysis is handled using the software package Abase XE (Surrey, United Kingdom. The % inhibition values are calculated by the equation: 100−(100*((compound response−average control 2)/(average control 1−average control2))). For calculation of pIC50s, Abase XE uses a four parameter equation. pIC50 is the negative log of the IC50.

[2] = target: T2, full length Keap1 protein / full length NRF2 protein (Homo sapiens, UniProt Q14145); assay: NRF2-Keap1 TR-FRET Low Protein Assay; format: binding; conditions: 1.25 nM Keap1 FlagHis and 2.5 nM biotin-NRF2 added
T2 construct: full length NRF2 protein and full length Keap1 protein (Keap1 exists a dimer) are used; His
Excerpt: NRF2-Keap1 TR-FRET Low Protein Assay In the NRF2-Keap1 TR-FRET (time-resolved fluorescence resonance energy transfer) low protein assay, full length NRF2 protein and full length Keap1 protein (Keap1 exists a dimer) are used. The assay detects a compound's ability to displace the binding of Keap1 […] with biotinylated Avi-NRF2 protein. Biotin-NRF2 binds to streptavidin-europium (a component of the detection mix) and Keap1 […] is recognized by anti-Flag APC (allophycocyanin) antibody (also a component of the detection mix). If binding occurs between the two proteins, there will be an energy transfer from the Eu+3 (donor) at 615 nm to the APC (acceptor) at 665 nm. A potential NRF2 inhibitor will cause a reduction in the TR-FRET signal by interfering with the binding of Keap1 to NRF2. Ten nanoliters of 100× compound dose response curves (serial 3-fold dilutions) in DMSO are stamped using an Echo liquid handling system (Labcyte) into 384-well, low volume, black assay plates (Greiner, #784076), with DMSO in columns 6 and 18. An additional 90 nl DMSO is added to each well, to bring the total volume to 100 nl per well. The top concentration of compound is located in columns 1 and 13, with the serial dilutions going across the row. All reagents are diluted in assay buffer (50 mM Tris, pH 8.0, 5 mM MgCl2, 100 mM NaCl, 0.005% BSA, 1 mM DTT, and 2 mM CHAPS. The BSA, DTT, and CHAPS are added to the assay buffer on the day of assay. […] Wells in column 18 receive 5 ul of assay buffer instead. Plates are centrifuged at 500 rpm for 1 minute, covered with a plate lid, and incubated at 37° C. for 2.25 hours. Plates are then removed from the incubator and allowed to cool to RT for 15 minutes. Five microliters of 2.5 nM biotin-NRF2 protein is then added to all wells of the plates and the plates are spun at 500 rpm for 1 minute, followed by incubating at 4° C. for 1.25 hours. The plates are then allowed to warm to RT for 15 minutes, followed by the addition of 10 ul of detection mix (1 nM Streptavidin Eu+W1024 and 5 ug/ml mouse anti-DYKDDDDK IgG conjugated to SureLight APC antibody; both from Columbia Biosciences) to all wells. Plates are spun at 500 rpm for 1 minute, incubated for 1 hour at RT, and read on an Envision plate reader using a 320 nm excitation filter and 615 nm and 665 nm emission filters. […] Data analysis is handled using the software package Abase XE (Surrey, United Kingdom). […] For calculation of pIC50s, Abase XE uses a four parameter equation. pIC50 is the negative log of the IC50.

[3] = system: NQO1 specific enzyme activity in BEAS-2B cells (marker for NRF2 activation); assay: BEAS-2B NQO1 MTT Assay; format: cell-based; conditions: Homo sapiens, compound incubated 48 hours, read-out: EC50 (NQO1 specific enzyme activity induction)
Excerpt: BEAS-2B NQO1 MTT Assay NAD(P)H:quinone oxidoreductase 1 (NQO1), also called DT diaphorase, is a homodimeric FAD-containing enzyme that catalyzes obligatory NAD(P)H-dependent two-electron reductions of quinones and protects cells against the toxic and neoplastic effects of free radicals and reactive oxygen species arising from one-electron reductions. The transcription of NQO1 is finely regulated by NRF2, and thus NQO1 activity is a good marker for NRF2 activation. On day one, frozen BEAS-2B cells (ATCC) are thawed in a water bath, counted, and re-suspended at a concentration of 250,000 cells/mL. Fifty microliters of cells are plated in 384 well black clear-bottomed plates. Plates are incubated at 37° C., 5% CO2 overnight. On day two, plates are centrifuged and 50 nL of compound or controls are added to the cells. Plates are then incubated at 37° C., 5% CO2 for 48 hours. On day four, medium is aspirated from the plate and crude cell lysates are made by adding 13 uL of 1× Cell Signaling Technologies lysis buffer with 1 Complete, Mini, EDTA-free Protease Inhibitor Tablet (Roche) for each 10 mL of lysis buffer. After lysis plates are incubated for 20 minutes at room temperature. Two microliters of lysate are removed for use in Cell Titer Glo assay (Promega) and MTT cocktail is prepared (Prochaska et. al. 1998) for measurement of NQO1 activity. Fifty microliters of MTT cocktail is added to each well, plate is centrifuged, and analyzed on an Envision plate reader (Perkin Elmer) using Absorbance 570 nm label for 30 minutes. Product formation is measured kinetically and the pEC50 of NQO1 specific activity induction is calculated by plotting the change in absorbance (Delta OD/min) versus the log of compound concentration followed by 3-parameter fitting. pEC50 is the negative log of the EC50.

T2 sequence (Q14145 whole entry): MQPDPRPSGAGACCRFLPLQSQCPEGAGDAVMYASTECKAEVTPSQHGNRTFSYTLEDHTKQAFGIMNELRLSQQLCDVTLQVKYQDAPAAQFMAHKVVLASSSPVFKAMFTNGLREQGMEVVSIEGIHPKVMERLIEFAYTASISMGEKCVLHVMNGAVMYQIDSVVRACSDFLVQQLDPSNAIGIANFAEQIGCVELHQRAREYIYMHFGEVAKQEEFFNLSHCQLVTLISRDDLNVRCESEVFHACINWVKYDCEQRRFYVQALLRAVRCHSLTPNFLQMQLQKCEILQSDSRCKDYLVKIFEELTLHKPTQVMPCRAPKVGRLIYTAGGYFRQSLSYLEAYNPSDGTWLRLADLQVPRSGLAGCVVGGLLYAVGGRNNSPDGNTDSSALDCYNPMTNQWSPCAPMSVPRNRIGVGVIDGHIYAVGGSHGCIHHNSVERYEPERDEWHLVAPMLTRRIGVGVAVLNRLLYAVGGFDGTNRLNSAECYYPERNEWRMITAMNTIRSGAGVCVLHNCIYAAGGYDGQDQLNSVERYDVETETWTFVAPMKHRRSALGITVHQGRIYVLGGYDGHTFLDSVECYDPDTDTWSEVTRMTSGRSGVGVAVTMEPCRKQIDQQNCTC
T1 sequence (Q14145 321-609): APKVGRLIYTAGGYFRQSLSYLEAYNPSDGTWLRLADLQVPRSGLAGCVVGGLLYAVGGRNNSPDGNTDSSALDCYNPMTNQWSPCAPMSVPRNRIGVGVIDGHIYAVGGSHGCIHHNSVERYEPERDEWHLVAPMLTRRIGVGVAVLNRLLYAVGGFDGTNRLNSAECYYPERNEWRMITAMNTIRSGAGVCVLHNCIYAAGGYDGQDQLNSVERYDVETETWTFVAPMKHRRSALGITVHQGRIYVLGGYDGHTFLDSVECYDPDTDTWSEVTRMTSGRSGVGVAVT

| SMILES | IC50 [1] | IC50 [2] | EC50 [3] | EC50 ([3]; BEAS-2B, 48 h) |
| --- | --- | --- | --- | --- |
| C[C@H](Oc1cccc(-c2cccc(-n3ncc(C(=O)O)c3[C@@H]3C[C@H]3c3cn(C4CNC4)nn3)c2)c1)C1CCCCC1 (racemic) [Example 85, 5-(trans-2-(1-(Azetidin-3-yl)-1H-1,2,3-triazol-4-yl)cyclopropyl)-1-(3′-((S)-1-cyclohexylethoxy)-[1,1′-biphenyl]-3-yl)-1H-pyrazole-4-carboxylic Acid] | 10 to 100 nM | 10 to 100 nM | 100 to 1000 nM |  |
| C[C@H](Oc1cccc(-c2cccc(-n3ncc(C(=O)O)c3[C@@H]3C[C@H]3c3cn(C4CCNCC4)nn3)c2)c1)C1CCCCC1 (racemic) [Example 86, 1-(3′-((S)-1-cyclohexylethoxy)-[1,1′-biphenyl]-3-yl)-5-(trans-2-(1-(piperidin-4-yl)-1H-1,2,3-triazol-4-yl)cyclopropyl)-1H-pyrazole-4-carboxylic Acid] | 10 to 100 nM | 10 to 100 nM | 100 to 1000 nM |  |
| C[C@H](Oc1cccc(-c2cccc(-n3ncc(C(=O)O)c3[C@@H]3C[C@H]3c3cn(Cc4ccccc4)nn3)c2)c1)C1CCCCC1 (racemic) [Example 87, 5-(trans-2-(1-Benzyl-1H-1,2,3-triazol-4-yl)cyclopropyl)-1-(3′-((S)-1-cyclohexylethoxy)-[1,1′-biphenyl]-3-yl)-1H-pyrazole-4-carboxylic Acid] | 100 to 1000 nM | 100 to 1000 nM | 10 to 100 nM |  |
| C[C@H](Oc1cccc(-c2cccc(-n3ncc(C(=O)O)c3[C@@H]3C[C@H]3c3cn(CCN(C)C)nn3)c2)c1)C1CCCCC1 (racemic) [Example 88, 1-(3′-((S)-1-Cyclohexylethoxy)-[1,1′-biphenyl]-3-yl)-5-(trans-2-(1-(2-(dimethylamino)ethyl)-1H-1,2,3-triazol-4-yl)cyclopropyl)-1H-pyrazole-4-carboxylic acid] | 10 to 100 nM | 10 to 100 nM | 10 to 100 nM |  |
| C[C@H](Oc1cccc(-c2cccc(-n3ncc(C(=O)O)c3[C@@H]3C[C@H]3c3cn(CCO)nn3)c2)c1)C1CCCCC1 (racemic) [Example 90, 1-(3′-((S)-1-Cyclohexylethoxy)-[1,1′-biphenyl]-3-yl)-5-(trans-2-(1-(2-hydroxyethyl)-1H-1,2,3-triazol-4-yl)cyclopropyl)-1H-pyrazole-4-carboxylic acid] | 10 to 100 nM | < 10 nM | 10 to 100 nM |  |
| CC(C)n1cc([C@@H]2C[C@H]2c2c(C(=O)O)cnn2-c2cccc(-c3cccc(O[C@@H](C)C4CCCCC4)c3)c2)nn1 (racemic) [Example 91, 1-(3′-((S)-1-Cyclohexylethoxy)-[1,1′-biphenyl]-3-yl)-5-(trans-2-(1-isopropyl-1H-1,2,3-triazol-4-yl)cyclopropyl)-1H-pyrazole-4-carboxylic acid] | 10 to 100 nM | 10 to 100 nM | 1 to 10 nM |  |

Now from value to compound, other results behind:

| IC50 [1] | IC50 [2] | SMILES | EC50 [3] | EC50 ([3]; BEAS-2B, 48 h) |
| --- | --- | --- | --- | --- |
| 10 to 100 nM | 100 to 1000 nM | C[C@H](Oc1cccc(-c2cccc(-n3ncc(C(=O)O)c3[C@@H]3C[C@H]3c3cn(-c4ccccc4)nn3)c2)c1)C1CCCCC1 (racemic) [Example 92] | 1 to 10 nM |  |
| 10 to 100 nM | 10 to 100 nM | C[C@H](Oc1cccc(-c2cccc(-n3ncc(C(=O)O)c3[C@@H]3C[C@H]3c3cn(C4CN(C)C4)nn3)c2)c1)C1CCCCC1 (racemic) [Example 94, 1-(3′-((S)-1-Cyclohexylethoxy)-[1,1′-biphenyl]-3-yl)-5-(trans-2-(1-(1-methylazetidin-3-yl)-1H-1,2,3-triazol-4-yl)cyclopropyl)-1H-pyrazole-4-carboxylic Acid] | 10 to 100 nM |  |
| > 10000 nM | 1000 to 10000 nM | C[C@H](Oc1cccc(-c2cccc(-n3ncc(C(=O)O)c3[C@H]3C[C@H]3c3cn(C)nn3)c2)c1)C1CCCCC1 (racemic) [Example 101, 1-(3′-((S)-1-cyclohexylethoxy)-[1,1′-biphenyl]-3-yl)-5-(cis-2-(1-methyl-1H-1,2,3-triazol-4-yl)cyclopropyl)-1H-pyrazole-4-carboxylic Acid] |  | 100 to 1000 nM |
| 1000 to 10000 nM | 1000 to 10000 nM | C[C@H](Oc1cccc(-c2cccc(-n3ncc(C(=O)O)c3[C@@H]3C[C@H]3CCCO)c2)c1)C1CCCCC1 (racemic) [Example 102, 1-(3′-((S)-1-Cyclohexylethoxy)-[1,1′-biphenyl]-3-yl)-5-(trans-2-(3-hydroxypropyl)cyclopropyl)-1H-pyrazole-4-carboxylic Acid] | 100 to 1000 nM |  |
